One may read the IC50 as the concentration that inhibits the measured activity by half.

Common to all, as to format: cell-based
The target in test [1] is EP2 subtype of the human PGE2 receptor (Homo sapiens, UniProt P43116). The experiment in a line: cAMP antagonism test on the human EP2 receptor (HTRF cAMP detection). Conditions: hEP2 receptor, read-out: Antagonism hEP2 IC50. Put shortly:
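Cells expressing human EP2 preincubated 20 min at RT with compound (0.8 nM–16.5 μM), then stimulated 60 min with PGE2 (3× solution 1.5 nM) in PBS-IBMX. After 20 min lysis, cAMP measured by competitive HTRF with cAMP-d2 and Eu cryptate anti-cAMP antibody (665/620 nm ratio).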
For orientation: Time-resolved FRET reads energy transfer from a long-lived donor to a nearby acceptor.

Test [2] addresses EP4 subtype of the human PGE2 receptor (Homo sapiens, UniProt P35408). The experiment in a line: cAMP antagonism test on the human EP4 receptor (HTRF cAMP detection). Conditions: selectivity towards hEP4, IC50 measured by cAMP antagonism test. Put shortly:
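Cells expressing human EP4 preincubated 20 min at RT with compound (0.8 nM–16.5 μM), then stimulated with PGE2 (0.3 nM in 3× solution, with IBMX) 60 min at RT. After lysis, cAMP measured by HTRF competition (665/620 nm ratio); antagonism seen as rise in FRET signal.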

In another test the target is T1, human PGD receptor (Homo sapiens, UniProt Q13258).
T1 sequence (Q13258 1-359): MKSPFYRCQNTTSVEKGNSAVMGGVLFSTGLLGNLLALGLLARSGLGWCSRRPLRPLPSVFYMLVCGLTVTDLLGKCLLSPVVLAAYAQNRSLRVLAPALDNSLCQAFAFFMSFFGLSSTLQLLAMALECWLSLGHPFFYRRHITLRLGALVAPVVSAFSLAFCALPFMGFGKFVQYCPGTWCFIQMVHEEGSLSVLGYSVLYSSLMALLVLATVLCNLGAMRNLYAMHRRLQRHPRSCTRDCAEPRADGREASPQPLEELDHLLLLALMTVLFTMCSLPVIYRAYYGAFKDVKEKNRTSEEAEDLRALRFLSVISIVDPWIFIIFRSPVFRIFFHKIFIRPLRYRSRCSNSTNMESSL
Briefly: cAMP antagonism test on the human prostaglandin D receptor (HTRF cAMP detection). Conditions: selectivity towards hDP, IC50 measured by cAMP antagonism test. Put shortly: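 Cells pre-mixed with cAMP-d2 were preincubated with compound (0.8 nM–16.5 μM) for 20 min at RT, then stimulated with 3× PGD2 solution (6 nM, in PBS-IBMX) for 30 min at RT. After lysis (20 min), HTRF read at 665/620 nm; antagonism seen as rise in FRET ratio.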

Chain of EP2 subtype of the human PGE2 receptor (P43116 whole entry): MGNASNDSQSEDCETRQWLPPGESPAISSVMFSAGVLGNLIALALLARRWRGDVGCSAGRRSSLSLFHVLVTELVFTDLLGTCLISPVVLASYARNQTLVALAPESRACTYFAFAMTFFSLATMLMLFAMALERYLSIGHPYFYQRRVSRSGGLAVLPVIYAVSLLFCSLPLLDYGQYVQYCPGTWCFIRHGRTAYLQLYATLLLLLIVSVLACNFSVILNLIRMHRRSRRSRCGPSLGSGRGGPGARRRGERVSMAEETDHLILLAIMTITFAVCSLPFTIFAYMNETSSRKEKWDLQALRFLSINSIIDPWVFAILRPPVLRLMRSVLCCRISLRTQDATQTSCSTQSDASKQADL
Chain of EP4 subtype of the human PGE2 receptor (P35408 whole entry): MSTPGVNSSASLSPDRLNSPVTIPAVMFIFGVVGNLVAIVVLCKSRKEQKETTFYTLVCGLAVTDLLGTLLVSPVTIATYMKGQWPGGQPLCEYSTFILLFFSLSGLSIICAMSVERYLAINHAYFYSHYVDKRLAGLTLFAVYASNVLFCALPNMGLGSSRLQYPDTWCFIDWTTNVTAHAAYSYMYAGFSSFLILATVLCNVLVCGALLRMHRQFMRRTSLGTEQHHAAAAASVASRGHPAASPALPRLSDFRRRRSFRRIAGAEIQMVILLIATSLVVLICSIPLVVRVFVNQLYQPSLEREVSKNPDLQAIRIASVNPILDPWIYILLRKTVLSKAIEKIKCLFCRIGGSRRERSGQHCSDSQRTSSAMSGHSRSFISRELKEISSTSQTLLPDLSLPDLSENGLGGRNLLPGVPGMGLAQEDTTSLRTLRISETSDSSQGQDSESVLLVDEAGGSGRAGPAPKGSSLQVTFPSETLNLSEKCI

`COc1c(C(=O)NCCN2CCOCC2)ccc2nn(CC3CN(C(=O)c4ccc(Cl)cc4)C3)cc12` [Example 258, 2-{[1-(4-chlorobenzoyl)azetidin-3-yl]methyl}-4-methoxy-N-(2-morpholinoethyl)-2H-indazol-5-carboxamide]: the concentration for half-maximal inhibition (IC50) in test [1] turned out to be 109 nM. The “Selectivity hEP2/hEP4” value in test [2] was “xxx (xxx > 100)”. Besides, the “Selectivity hEP2/hDP” value on human PGD receptor is on record as “xxx (xxx > 100)”.
Consider `COC(C)CNC(=O)c1ccc2nn(CC3CN(C(=O)c4ccc(Cl)cc4)C3)cc2c1C` (single isomer, unassigned) [Example 139, (R or S)-2-{[1-(4-chlorobenzoyl)azetidin-3-yl]methyl}-N-(2-methoxypropyl)-4-methyl-2H-indazol-5-carboxamide], for which the IC50 in test [1] stood at 419 nM. Further, in test [2], the “Selectivity hEP2/hEP4” value is reported as “xx (xx: 10-100)”. Also, the “Selectivity hEP2/hDP” value on human PGD receptor is on record as “xx (xx: 10-100)”.
In the case of `COCCNC(=O)c1ccc2nn(CC3CCN(C(=O)c4cn(C)c5ccccc45)CC3)cc2c1OC` [Example 273, 4-methoxy-N-(2-methoxyethyl)-2-({1-[(1-methyl-1H-indol-3-yl)carbonyl]-piperidin-4-yl}methyl)-2H-indazol-5-carboxamide], in test [1], the IC50 is 18.5 nM. For the same compound, the “Selectivity hEP2/hEP4” value in test [2] is given as “xxx (xxx > 100)”. Besides, the “Selectivity hEP2/hDP” value at human PGD receptor is “xxx (xxx > 100)”.
On to `COCCNC(=O)c1ccc2nn(CC3CCN(C(=O)c4ccc(S(F)(F)(F)(F)F)cc4)CC3)cc2c1C` [Example 11, N-(2-methoxyethyl)-4-methyl-2-({1-[4-(pentafluoro-λ^6-sulphanyl)benzoyl]piperidin-4-yl}methyl)-2H-indazol-5-carboxamide], for which, in test [1], the IC50 is 8.14 nM. For the same compound, the “Selectivity hEP2/hEP4” value in test [2] is given as “xxx (xxx > 100)”. In addition, the “Selectivity hEP2/hDP” value on human PGD receptor is “xxx (xxx > 100)”.
In the case of `Cc1c(C(=O)NCCOCC(F)(F)F)ccc2nn(CC3CN(C(=O)c4ccc(Oc5ccc(C(F)(F)F)cc5)cc4)C3)cc12` [Example 163, 4-methyl-N-[2-(2,2,2-trifluoroethoxy)ethyl]-2-[(1-{4-[4-(trifluoromethyl)phenoxy]benzoyl}azetidin-3-yl)methyl]-2H-indazol-5-carboxamide], the 50% inhibitory concentration (IC50) in test [1] was found to be 6.8 nM. Besides, the “Selectivity hEP2/hEP4” value in test [2] is on record as “xxx (xxx > 100)”. Further, on human PGD receptor, the “Selectivity hEP2/hDP” value is “xxx (xxx > 100)”.
Consider `Cc1c(C(=O)NCC(F)(F)F)ccc2nn(CC3CCN(C(=O)c4cn(C)c5ccccc45)CC3)cc12` [Example 289, 4-methyl-2-({1-[(1-methyl-1H-indol-3-yl)carbonyl]piperidin-4-yl}methyl)-N-(2,2,2-trifluoroethyl)-2H-indazol-5-carboxamide], for which the IC50 in test [1] came to 51.6 nM. The “Selectivity hEP2/hEP4” value in test [2] is “xxx (xxx > 100)”. Also, the “Selectivity hEP2/hDP” value at human PGD receptor is “xxx (xxx > 100)”.
For `COCCNC(=O)c1ccc2nn(CC3CCN(C(=O)c4ccc(C(F)(F)F)cc4F)CC3)cc2c1OC` [Example 267, 2-({1-[2-fluoro-4-(trifluoromethyl)benzoyl]piperidin-4-yl}methyl)-4-methoxy-N-(2-methoxyethyl)-2H-indazol-5-carboxamide], the IC50 in test [1] was 45.5 nM. Also, the “Selectivity hEP2/hEP4” value in test [2] is listed as “xxx (xxx > 100)”. Moreover, on human PGD receptor, the “Selectivity hEP2/hDP” value is recorded as “xxx (xxx > 100)”.
`COCCNC(=O)c1ccc2nn(CC3CCN(C(=O)c4ccc(-c5ccccc5F)cc4)CC3)cc2c1C` [Example 47, 2-({1-[(2′-fluoro-biphenyl-4-yl)-carbonyl]piperidin-4-yl}methyl)-N-(2-methoxyethyl)-4-methyl-2H-indazol-5-carboxamide]: in test [1], the IC50 amounted to 5.61 nM. For the same compound, in test [2], the “Selectivity hEP2/hEP4” value is reported as “xxx (xxx > 100)”. Also, the “Selectivity hEP2/hDP” value on human PGD receptor is reported as “xxx (xxx > 100)”.
Turning to `Cc1c(C(=O)NCCSC(F)(F)F)ccc2nn(CC3CN(C(=O)c4ccc(C(F)(F)F)cc4F)C3)cc12` [Example 134, 2-({1-[2-fluoro-4-(trifluoromethyl)benzoyl]azetidin-3-yl}methyl)-4-methyl-N-{2-[(trifluoromethyl)sulphanyl]ethyl}-2H-indazol-5-carboxamide], in test [1], the IC50 is 56.5 nM. Moreover, the “Selectivity hEP2/hEP4” value in test [2] is recorded as “xxx (xxx > 100)”. The “Selectivity hEP2/hDP” value at human PGD receptor was “xxx (xxx > 100)”.
Turning to `COCCNC(=O)c1ccc2nn(CC3CCN(C(=O)c4ccc(-c5cccc(C(F)(F)F)n5)cc4)CC3)cc2c1C` [Example 369, N-(2-methoxyethyl)-4-methyl-2-[(1-{4-[6-(trifluoromethyl)pyridin-2-yl]-benzoyl}piperidin-4-yl)methyl]-2H-indazol-5-carboxamide], the IC50 in test [1] was 5.66 nM. Also, in test [2], the “Selectivity hEP2/hEP4” value is “xxx (xxx > 100)”. Further, at human PGD receptor, the “Selectivity hEP2/hDP” value is reported as “xxx (xxx > 100)”.
Take `COCCNC(=O)c1ccc2nn(CC3CN(C(=O)c4ccc(OC(F)(F)F)cc4)C3)cc2c1OC` [Example 254, 4-methoxy-N-(2-methoxyethyl)-2-({1-[4-(trifluoromethoxy)benzoyl]azetidin-3-yl}methyl)-2H-indazol-5-carboxamide]: in test [1], the IC50 worked out at 55.2 nM. Further, the “Selectivity hEP2/hEP4” value in test [2] is reported as “xxx (xxx > 100)”. Moreover, on human PGD receptor, the “Selectivity hEP2/hDP” value is “xxx (xxx > 100)”.
Consider `COCCNC(=O)c1cc2cn(CC3CN(C(=O)c4ccc(C(F)(F)F)cc4F)C3)nc2cc1C` [Example 182, 2-({1-[2-fluoro-4-(trifluoromethyl)benzoyl]azetidin-3-yl}methyl)-N-(2-methoxy-ethyl)-6-methyl-2H-indazol-5-carboxamide], for which the IC50 in test [1] came to 64.2 nM. In addition, the “Selectivity hEP2/hEP4” value in test [2] is “xxx (xxx > 100)”. Further, the “Selectivity hEP2/hDP” value at human PGD receptor is given as “xxx (xxx > 100)”.
For `Cc1c(C(=O)NCCS(C)(=O)=O)ccc2nn(CC3CCN(C(=O)c4ccc(Oc5ccc(C(F)(F)F)cc5)cc4)CC3)cc12` [Example 245, N-(2-mesylethyl)-4-methyl-2-[(1-{4-[4-(trifluoromethyl)phenoxy]benzoyl}-piperidin-4-yl)methyl]-2H-indazol-5-carboxamide], the IC50 in test [1] amounted to 7.79 nM. Further, the “Selectivity hEP2/hEP4” value in test [2] is “xxx (xxx > 100)”. The “Selectivity hEP2/hDP” value on human PGD receptor is “xxx (xxx > 100)”.
For `Cc1c(C(=O)NCCN2CCOCC2)ccc2nn(CC3CCN(C(=O)c4cccc(C(F)(F)F)c4)CC3)cc12` [Example 65, 4-methyl-N-(2-morpholinoethyl)-2-({1-[3-(trifluoromethyl)benzoyl]piperidin-4-yl}methyl)-2H-indazol-5-carboxamide], the IC50 in test [1] was found to be 2790 nM. The “Selectivity hEP2/hEP4” value in test [2] is “x (x: 1-10)”. On human PGD receptor, the “Selectivity hEP2/hDP” value is “x (x: 1-10)”.
Turning to `Cc1c(C(=O)NCC(F)(F)F)ccc2nn(CC3CCN(C(=O)c4ccc(-c5cccc(C(F)(F)F)n5)cc4)CC3)cc12` [Example 329, 4-methyl-N-(2,2,2-trifluoroethyl)-2-[(1-{4-[6-(trifluoromethyl)pyridin-2-yl]-benzoyl}piperidin-4-yl)methyl]-2H-indazol-5-carboxamide], the IC50 in test [1] worked out at 232 nM. Also, the “Selectivity hEP2/hEP4” value in test [2] is given as “xx (xx: 10-100)”. Also, the “Selectivity hEP2/hDP” value at human PGD receptor is reported as “xx (xx: 10-100)”.
Regarding `COCCNC(=O)c1ccc2nn(CC3CCN(C(=O)c4ccc(-c5ccc(F)cc5)c(C)c4)CC3)cc2c1C` [Example 390, 2-({1-[(4′-fluoro-2-methylbiphenyl-4-yl)carbonyl]piperidin-4-yl}methyl)-N-(2-methoxyethyl)-4-methyl-2H-indazol-5-carboxamide], in test [1], the IC50 is 3.14 nM. In test [2], the “Selectivity hEP2/hEP4” value was “xxx (xxx > 100)”. Also, the “Selectivity hEP2/hDP” value at human PGD receptor is recorded as “xxx (xxx > 100)”.
As to `COCCNC(=O)c1ccc2nn(CC3CCN(C(=O)c4ccc(-c5ccc(F)cc5C)cc4)CC3)cc2c1C` [Example 376, 2-({1-[(4′-fluoro-2′-methylbiphenyl-4-yl)carbonyl]piperidin-4-yl}methyl)-N-(2-methoxyethyl)-4-methyl-2H-indazol-5-carboxamide], the IC50 in test [1] came to 3.59 nM. Also, the “Selectivity hEP2/hEP4” value in test [2] is “xxx (xxx > 100)”. For the same compound, the “Selectivity hEP2/hDP” value at human PGD receptor is “xxx (xxx > 100)”.
For `Cc1c(C(=O)NCC2CCCCO2)ccc2nn(CC3CN(C(=O)c4ccc(Cl)cc4)C3)cc12` (racemic) [Example 144, (+/−)-2-{[1-(4-chlorobenzoyl)azetidin-3-yl]methyl}-4-methyl-N-(3,4,5,6-tetrahydro-2H-pyran-2-ylmethyl)-2H-indazol-5-carboxamide], the IC50 in test [1] was 50.8 nM. For the same compound, the “Selectivity hEP2/hEP4” value in test [2] is “xxx (xxx > 100)”. For the same compound, on human PGD receptor, the “Selectivity hEP2/hDP” value is listed as “xxx (xxx > 100)”.
As to `Cc1c(C(=O)NCCSC(F)(F)F)ccc2nn(CC3CN(C(=O)c4ccc(S(F)(F)(F)(F)F)cc4)C3)cc12` [Example 135, 4-methyl-2-({1-[4-(pentafluoro-λ^6-sulphanyl)benzoyl]azetidin-3-yl}methyl)-N-{2-[(trifluoromethyl)sulphanyl]ethyl}-2H-indazol-5-carboxamide], in test [1], the IC50 was 19.5 nM. In addition, the “Selectivity hEP2/hEP4” value in test [2] is “xxx (xxx > 100)”. The “Selectivity hEP2/hDP” value on human PGD receptor is on record as “xxx (xxx > 100)”.

For the origin of these results see patent US9062041B2 (Bayer Intellectual Property GmbH, priority 2011, dated 2015).
